Measured values reported in patent publication US20040044026A1, “3-Substituted quinuclidines and their use as nicotinic agonists” (priority 2000, published 2004).
Structures can show the parent of a compound that is named as a salt. Where two headings read alike, the source gives them in different places.

Tests used:
[1] = target: nicotinic receptors (non-selective); assay: in vitro inhibition of 3H-epibatidin binding; details: radioligand 3H-epibatidin
Description: the in vitro inhibition of ^3H-epibatidin binding, which is a standard assay for determining non-selective binding to nicotinic receptors,
(§1) Such standard assays are described in e.g. WO 99/21834.
(§2) In this example the affinity of compounds of the invention for nicotinic acetylcholine receptors are investigated using standard assays described in WO 99/21834.
First the in vitro inhibition of ^3H-epibatidin binding, which is a standard assay for determining non-selective binding to nicotinic receptors, was determined.

[2] = target: α7-subtype of nicotinic receptors (Rattus norvegicus, UniProt Q05941); assay: biochemical; type: binding
[3] = target: α4β2-subtype of nicotinic receptors (Rattus norvegicus, UniProt P09483+P12390); assay: in vitro inhibition of 3H-cytisine binding
Description: the in vitro inhibition ^3H-cytisine binding, which is a standard assay for determining selective binding to α4β2 subtype of nicotinic receptors, and/or
as §1, §2
Next the in vitro inhibition ^3H-cytisine binding, which is a standard assay for determining selective binding to α4β2-subtype of nicotinic receptors, was determined.

α4β2-subtype of nicotinic receptors, sequence (P09483 31-630): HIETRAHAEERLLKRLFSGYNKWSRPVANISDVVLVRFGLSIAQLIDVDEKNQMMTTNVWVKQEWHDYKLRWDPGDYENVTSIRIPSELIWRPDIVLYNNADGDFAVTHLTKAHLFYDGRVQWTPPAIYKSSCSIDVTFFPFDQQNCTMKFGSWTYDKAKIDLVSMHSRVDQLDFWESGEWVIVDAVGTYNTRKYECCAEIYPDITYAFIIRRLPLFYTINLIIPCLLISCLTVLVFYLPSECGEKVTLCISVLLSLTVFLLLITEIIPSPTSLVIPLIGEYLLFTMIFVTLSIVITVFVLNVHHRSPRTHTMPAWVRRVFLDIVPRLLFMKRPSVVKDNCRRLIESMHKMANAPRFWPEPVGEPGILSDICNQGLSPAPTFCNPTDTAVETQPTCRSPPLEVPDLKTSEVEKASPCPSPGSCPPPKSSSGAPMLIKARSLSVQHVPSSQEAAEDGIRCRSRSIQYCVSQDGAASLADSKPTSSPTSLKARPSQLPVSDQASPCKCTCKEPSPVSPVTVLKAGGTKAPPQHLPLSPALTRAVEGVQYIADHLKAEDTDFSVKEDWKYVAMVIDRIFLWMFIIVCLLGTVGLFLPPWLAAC
α4β2-subtype of nicotinic receptors, sequence (P12390 25-500): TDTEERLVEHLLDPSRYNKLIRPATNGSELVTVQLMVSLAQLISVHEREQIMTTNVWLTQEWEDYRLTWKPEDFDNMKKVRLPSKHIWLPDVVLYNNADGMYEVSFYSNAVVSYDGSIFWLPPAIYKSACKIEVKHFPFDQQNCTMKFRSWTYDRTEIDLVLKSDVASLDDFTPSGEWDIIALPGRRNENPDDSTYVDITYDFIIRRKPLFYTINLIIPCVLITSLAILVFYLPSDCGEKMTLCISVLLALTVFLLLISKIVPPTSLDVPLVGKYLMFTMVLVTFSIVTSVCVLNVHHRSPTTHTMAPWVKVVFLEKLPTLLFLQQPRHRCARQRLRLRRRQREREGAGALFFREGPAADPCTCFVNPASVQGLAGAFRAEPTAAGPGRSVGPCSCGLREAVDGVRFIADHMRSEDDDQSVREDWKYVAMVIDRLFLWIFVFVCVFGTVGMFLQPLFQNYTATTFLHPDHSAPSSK
α7-subtype of nicotinic receptors, sequence (Q05941 23-502): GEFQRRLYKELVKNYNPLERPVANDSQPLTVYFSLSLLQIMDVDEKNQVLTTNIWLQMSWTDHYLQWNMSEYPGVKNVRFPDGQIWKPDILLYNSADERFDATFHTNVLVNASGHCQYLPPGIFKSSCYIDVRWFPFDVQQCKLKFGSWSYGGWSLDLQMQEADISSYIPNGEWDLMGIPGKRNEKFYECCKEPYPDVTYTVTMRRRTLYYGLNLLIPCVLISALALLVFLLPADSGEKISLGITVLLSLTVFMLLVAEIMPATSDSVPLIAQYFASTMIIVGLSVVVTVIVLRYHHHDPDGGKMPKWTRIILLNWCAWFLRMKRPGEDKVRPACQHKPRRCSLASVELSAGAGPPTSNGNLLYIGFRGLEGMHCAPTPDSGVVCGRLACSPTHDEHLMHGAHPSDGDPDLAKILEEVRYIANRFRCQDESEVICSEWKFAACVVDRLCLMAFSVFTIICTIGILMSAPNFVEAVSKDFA

| SMILES | IC50 [1] [µM] | IC50 [2] [nM] | IC50 [3] [µM] | IC50 ([3]; radioligand 3H-cytisine, read-out: in vitro Inhibition of Binding (IC50) 3H-cytisine binding) [µM] |
| --- | --- | --- | --- | --- |
| c1ccc2cc(C3CN4CCC3CC4)ccc2c1 (racemic) [Compound C1, (±)-3-(2-Naphthyl)-quinuclidine fumaric acid salt] | 7.5 | 150 | 6 | – |
| C1=C(c2ccc3ccccc3c2)C2CCN1CC2 [Compound B1, 3-(2-Naphthyl)-quinuclidine-3-ene fumaric acid salt] | 17 | 58 | – | 10 |
